Values joined by “and” are separate entries in the source; they are usually repeats but may differ in a detail not shown here. Identical values can stand only once. Toxic doses and inconclusive results are not listed. How the source made its calls: active means survival T/C of 150% or more; inactive means T/C below 125% in these data.
Tested on: BDF1 mice, intracerebral L1210 leukemia, survival T/C
Test: NCI In Vivo Anticancer Drug Screen. Data for tumor model L1210 Leukemia (intracerebral) in B6D2F1 (BDF1) mice
Conditions: higher = longer survival
Experimental: The antitumor activity of compounds was measured in mice bearing transplantable tumors. Survival or tumor size were measured and the results are expressed as the measurement made in the treated group (T) divided by the measurement made in the vehicle treated control group (C). The tumor model used in this assay is L1210 Leukemia (intracerebral) in B6D2F1 (BDF1) mice

[1] = endpoint: mean survival time, dose: 0.25 mg/kg/injection, schedule: Q01DX009 (ip), vehicle: saline
[2] = endpoint: mean survival time, dose: 0.5 mg/kg/injection, schedule: Q01DX009 (ip), vehicle: saline
[3] = endpoint: mean survival time, dose: 1.0 mg/kg/injection, schedule: Q01DX009 (ip), vehicle: saline
[4] = endpoint: mean survival time, dose: 2.0 mg/kg/injection, schedule: Q01DX009 (ip), vehicle: saline
[5] = endpoint: mean survival time, dose: 4.0 mg/kg/injection, schedule: Q01DX009 (ip), vehicle: saline

Measured: T/C

O=NN(CCCl)C(=O)N[C@H]1CCCC[C@@H]1Cl
inactive: endpoint: mean survival time, dose: 5.0 mg/kg/injection, schedule: Q01DX001 (ip), vehicle: other 102 % of control and 96 % of control | endpoint: mean survival time, dose: 10.0 mg/kg/injection, schedule: Q01DX001 (ip), vehicle: other 106 % of control and 113 % of control | endpoint: mean survival time, dose: 13.0 mg/kg/injection, schedule: Q01DX001 (ip), vehicle: carboxymethylcellulose (CMC) 120 % of control
active: endpoint: mean survival time, dose: 13.75 mg/kg/injection, schedule: Q01DX001 (oral), vehicle: other 190 % of control and 226 % of control and 230 % of control | endpoint: mean survival time, dose: 15.25 mg/kg/injection, schedule: Q01DX001 (ip), vehicle: other 158 % of control and 165 % of control and 216 % of control | endpoint: mean survival time, dose: 19.0 mg/kg/injection, schedule: Q01DX001 (ip), vehicle: carboxymethylcellulose (CMC) 152 % of control | endpoint: mean survival time, dose: 20.0 mg/kg/injection, schedule: Q01DX001 (ip), vehicle: other 175 % of control and 181 % of control | endpoint: mean survival time, dose: 26.0 mg/kg/injection, schedule: Q01DX001 (ip), vehicle: carboxymethylcellulose (CMC) 164 % of control and 221 % of control | endpoint: mean survival time, dose: 27.5 mg/kg/injection, schedule: Q01DX001 (oral), vehicle: other 315 % of control and 337 % of control and 442 % of control | endpoint: mean survival time, dose: 30.5 mg/kg/injection, schedule: Q01DX001 (ip), vehicle: carboxymethylcellulose (CMC) 163 % of control | endpoint: mean survival time, dose: 30.5 mg/kg/injection, schedule: Q01DX001 (ip), vehicle: other 278 % of control and 293 % of control and 361 % of control | endpoint: mean survival time, dose: 40.0 mg/kg/injection, schedule: Q01DX001 (ip), vehicle: carboxymethylcellulose (CMC) 228 % of control and 310 % of control | endpoint: mean survival time, dose: 41.0 mg/kg/injection, schedule: Q01DX001 (ip), vehicle: other 317 % of control and 391 % of control | endpoint: mean survival time, dose: 46.0 mg/kg/injection, schedule: Q01DX001 (ip), vehicle: carboxymethylcellulose (CMC) 284 % of control | endpoint: mean survival time, dose: 55.0 mg/kg/injection, schedule: Q01DX001 (oral), vehicle: other 184 % of control and 271 % of control and 351 % of control | endpoint: mean survival time, dose: 60.0 mg/kg/injection, schedule: Q01DX001 (ip), vehicle: carboxymethylcellulose (CMC) 297 % of control | endpoint: mean survival time, dose: 61.0 mg/kg/injection, schedule: Q01DX001 (ip), vehicle: carboxymethylcellulose (CMC) 274 % of control | endpoint: mean survival time, dose: 61.0 mg/kg/injection, schedule: Q01DX001 (ip), vehicle: other 178 % of control and 254 % of control | endpoint: mean survival time, dose: 83.0 mg/kg/injection, schedule: Q01DX001 (ip), vehicle: other 270 % of control and 419 % of control

O=C1C(NCCO)=C(N2CC2)C(=O)C(NCCO)=C1N1CC1
inactive: endpoint: mean survival time, dose: 0.18 mg/kg/injection, schedule: Q01DX009 (ip), vehicle: saline 108 % of control and 116 % of control | endpoint: mean survival time, dose: 0.37 mg/kg/injection, schedule: Q01DX009 (ip), vehicle: saline 114 % of control | endpoint: mean survival time, dose: 1.5 mg/kg/injection, schedule: Q01DX009 (ip), vehicle: saline 98 % of control

CN(N=O)C(=O)Nc1ccccc1
inactive: endpoint: mean survival time, dose: 150.0 mg/kg/injection, schedule: Q01DX001 (ip), vehicle: carboxymethylcellulose (CMC) 103 % of control | endpoint: mean survival time, dose: 300.0 mg/kg/injection, schedule: Q01DX001 (ip), vehicle: carboxymethylcellulose (CMC) 98 % of control

O=C1CN=C(c2ccc[nH]2)c2cc(Cl)ccc2N1
inactive: endpoint: mean survival time, dose: 248.0 mg/kg/injection, schedule: Q01DX009 (sc), vehicle: Klucel (hydroxypropylcellulose) (HPC) 103 % of control | endpoint: mean survival time, dose: 377.0 mg/kg/injection, schedule: Q01DX009 (sc), vehicle: Klucel (hydroxypropylcellulose) (HPC) 108 % of control | endpoint: mean survival time, dose: 571.0 mg/kg/injection, schedule: Q01DX009 (sc), vehicle: Klucel (hydroxypropylcellulose) (HPC) 100 % of control | endpoint: mean survival time, dose: 858.0 mg/kg/injection, schedule: Q01DX009 (sc), vehicle: Klucel (hydroxypropylcellulose) (HPC) 108 % of control | endpoint: mean survival time, dose: 1300.0 mg/kg/injection, schedule: Q01DX009 (sc), vehicle: Klucel (hydroxypropylcellulose) (HPC) 122 % of control | endpoint: median survival time, dose: 1.75 mg/kg/injection, schedule: Q01DX009 (ip), vehicle: other 102 % of control | endpoint: median survival time, dose: 3.15 mg/kg/injection, schedule: Q01DX009 (ip), vehicle: other 102 % of control | endpoint: median survival time, dose: 6.3 mg/kg/injection, schedule: Q01DX009 (ip), vehicle: other 106 % of control | endpoint: median survival time, dose: 12.5 mg/kg/injection, schedule: Q01DX009 (ip), vehicle: other 102 % of control | endpoint: median survival time, dose: 25.0 mg/kg/injection, schedule: Q01DX009 (ip), vehicle: other 110 % of control

CN(N=O)C(N)=O
active: endpoint: mean survival time, dose: 72.0 mg/kg/injection, schedule: Q01DX001 (ip), vehicle: saline 152 % of control
inactive: endpoint: mean survival time, dose: 18.0 mg/kg/injection, schedule: Q01DX001 (ip), vehicle: saline 102 % of control | endpoint: mean survival time, dose: 36.0 mg/kg/injection, schedule: Q01DX001 (ip), vehicle: saline 110 % of control

O=c1cn[nH]c(=O)[nH]1
inactive: endpoint: mean survival time, dose: 440.0 mg/kg/injection, schedule: Q01DX001 (ip), vehicle: carboxymethylcellulose (CMC) 102 % of control | endpoint: mean survival time, dose: 670.0 mg/kg/injection, schedule: Q01DX001 (ip), vehicle: carboxymethylcellulose (CMC) 101 % of control | endpoint: mean survival time, dose: 1000.0 mg/kg/injection, schedule: Q01DX001 (ip), vehicle: carboxymethylcellulose (CMC) 101 % of control

Cc1cccc2c(Nc3ccc(NS(C)(=O)=O)cc3)c3ccc([N+](=O)[O-])cc3nc12
inactive: endpoint: mean survival time, dose: 10.0 mg/kg/injection, schedule: Q01DX009 (ip), vehicle: saline 114 % of control | endpoint: mean survival time, dose: 10.0 mg/kg/injection, schedule: Q01DX009 (sc), vehicle: saline 104 % of control | endpoint: mean survival time, dose: 20.0 mg/kg/injection, schedule: Q01DX009 (ip), vehicle: saline 94 % of control | endpoint: mean survival time, dose: 20.0 mg/kg/injection, schedule: Q01DX009 (sc), vehicle: saline 101 % of control | endpoint: mean survival time, dose: 40.0 mg/kg/injection, schedule: Q01DX009 (sc), vehicle: saline 96 % of control

OCCN1CCN(CC/C=C2/c3ccccc3Sc3ccc(C(F)(F)F)cc32)CC1
inactive: endpoint: mean survival time, dose: 3.12 mg/kg/injection, schedule: Q04DX003 (ip), vehicle: saline 113 % of control | endpoint: mean survival time, dose: 6.25 mg/kg/injection, schedule: Q04DX003 (ip), vehicle: saline 111 % of control | endpoint: mean survival time, dose: 12.5 mg/kg/injection, schedule: Q04DX003 (ip), vehicle: saline 113 % of control | endpoint: mean survival time, dose: 25.0 mg/kg/injection, schedule: Q04DX003 (ip), vehicle: saline 100 % of control

CCCCCCC(=O)NC1=C(N2CC2)C(=O)C(NC(=O)CCCCCC)=C(N2CC2)C1=O
inactive: endpoint: mean survival time, dose: 20.0 mg/kg/injection, schedule: Q01DX009 (ip), vehicle: Klucel (hydroxypropylcellulose) (HPC) 100 % of control | endpoint: mean survival time, dose: 40.0 mg/kg/injection, schedule: Q01DX009 (ip), vehicle: Klucel (hydroxypropylcellulose) (HPC) 105 % of control | endpoint: mean survival time, dose: 80.0 mg/kg/injection, schedule: Q01DX009 (ip), vehicle: Klucel (hydroxypropylcellulose) (HPC) 120 % of control | endpoint: mean survival time, dose: 160.0 mg/kg/injection, schedule: Q01DX009 (ip), vehicle: Klucel (hydroxypropylcellulose) (HPC) 106 % of control

CCNC(=O)N(CC)N=O
inactive: endpoint: mean survival time, dose: 222.0 mg/kg/injection, schedule: Q01DX001 (ip), vehicle: saline 100 % of control | endpoint: mean survival time, dose: 333.0 mg/kg/injection, schedule: Q01DX001 (ip), vehicle: saline 110 % of control | endpoint: mean survival time, dose: 500.0 mg/kg/injection, schedule: Q01DX001 (ip), vehicle: saline 123 % of control

CCCOC1=C(N2CC2)C(=O)C(OCCC)=C(N2CC2)C1=O
104 % of control and 302 % of control: [3]
inactive: [1] 105 % of control | endpoint: mean survival time, dose: 0.5 mg/kg/injection, schedule: Q01DX005 (ip), vehicle: saline 97 % of control | [2] 113 % of control | endpoint: mean survival time, dose: 1.0 mg/kg/injection, schedule: Q01DX005 (ip), vehicle: saline 101 % of control | endpoint: mean survival time, dose: 2.0 mg/kg/injection, schedule: Q01DX005 (ip), vehicle: saline 108 % of control | [4] 111 % of control and 117 % of control | endpoint: mean survival time, dose: 4.0 mg/kg/injection, schedule: Q01DX005 (ip), vehicle: saline 106 % of control | [5] 117 % of control

Cc1ccc(S(=O)(=O)NC(=O)N(CCCl)N=O)cc1
inactive: endpoint: mean survival time, dose: 31.0 mg/kg/injection, schedule: Q01DX001 (ip), vehicle: other 119 % of control | endpoint: mean survival time, dose: 62.0 mg/kg/injection, schedule: Q01DX001 (ip), vehicle: other 116 % of control | endpoint: mean survival time, dose: 140.0 mg/kg/injection, schedule: Q01DX001 (ip), vehicle: other 115 % of control

Nc1ncnc2c1ccn2C1OC(CO)C(O)C1O (centres undefined)
inactive: endpoint: mean survival time, dose: 1.2 mg/kg/injection, schedule: Q01DX001 (ip), vehicle: carboxymethylcellulose (CMC) 96 % of control | endpoint: mean survival time, dose: 1.9 mg/kg/injection, schedule: Q01DX001 (ip), vehicle: carboxymethylcellulose (CMC) 97 % of control | endpoint: mean survival time, dose: 2.9 mg/kg/injection, schedule: Q01DX001 (ip), vehicle: carboxymethylcellulose (CMC) 100 % of control

O=NN(CCCl)C(=O)Nc1ccccc1Cl
inactive: endpoint: mean survival time, dose: 22.0 mg/kg/injection, schedule: Q01DX001 (ip), vehicle: carboxymethylcellulose (CMC) 100 % of control | endpoint: mean survival time, dose: 33.0 mg/kg/injection, schedule: Q01DX001 (ip), vehicle: carboxymethylcellulose (CMC) 89 % of control | endpoint: mean survival time, dose: 50.0 mg/kg/injection, schedule: Q01DX001 (ip), vehicle: carboxymethylcellulose (CMC) 100 % of control

CCOC1=C(N2CC2)C(=O)C(OCC)=C(N2CC2)C1=O
inactive: [1] 96 % of control | [2] 109 % of control and 93 % of control | [3] 108 % of control and 98 % of control | [4] 112 % of control | [5] 94 % of control

From PubChem BioAssay AID252 (DTP/NCI, 2004)
